“And” between values parts separate entries of the source, which are not always exact repeats. Identical values can stand only once.
Key:
[1] = Plasma concentration in minipig cardiovascular safety study; type: in vivo
Experimental: (§1) A Swan Ganz (thermodilution catheter) was inserted into the right femoral vein via phlebotomy and advanced into the pulmonary artery for cardiac output measurements. A catheter was inserted in the left femoral artery via an arteriotomy for blood gas determination. Another catheter was inserted in the left femoral vein for blood collection for toxicokinetic evaluation. Finally, an incision was also performed on the left side of the neck to expose the left carotid artery and an electronic dual pressure sensor catheter (Millar) was placed via arteriotomy and advanced into the left ventricle. The catheter was positioned to simultaneously collect left ventricle blood pressure measurements as well as aortic pressure. In addition, a temporary catheter was placed in any of the cephalic veins for administration of Lactated Ringers at 10 mL/kg/hr throughout the course of the experiment.
(§2) Following surgical preparation, hemodynamic and electrocardiographic parameters were allowed to stabilize for at least 15 minutes. The vehicle control and test article were then administered, and hemodynamic, electrocardiographic, histamine and PK parameters were monitored.
Peak plasma concentrations of sulcardine sulfate increased with increasing dose. […]

[2] = Plasma concentration in primate cardiovascular safety study; type: in vivo, Cynomolgus monkey
Experimental: as §1
as §2, with “electrocardiographic” for “electrocardiographic, histamine and PK”, “monitored. Histamine and plasma PK data was obtained. […]” for “monitored.”

[3] = system: minipigs; test: Cardiovascular safety in anesthetized minipigs, escalating 15-minute IV infusions; type: in vivo, minipig
Experimental: Animals were administered morphine (2 mg/kg subcutaneously) prior to induction of anesthesia. […] Animals were placed on a heating pad set to maintain the animal's body temperature at approximately 37° C. Body temperature was monitored throughout the experiment via a rectal thermometer or via the Swan Ganz (thermodilution catheter) once implanted. Animals were intubated and placed on a ventilator supplemented with oxygen to maintain oxygenation within the normal physiological range. The animals were mechanically ventilated at a rate of 11-13 breaths/minute and a peak inspiratory pressure of 18 cm H2O. The following parameters were regularly monitored in order to ensure proper ventilation of the animals but are not reported: SpO2, inspiratory and expiratory CO2, inspiratory O2 and respiratory rate.
as §1, §2

[4] = system: Cynomolgus monkeys; test: Cardiovascular safety in anesthetized Cynomolgus monkeys, escalating 15-minute IV infusions; type: in vivo, Cynomolgus monkey
Experimental: Female Cynomolgus monkeys were administered morphine (2 mg/kg subcutaneously) prior to induction of anesthesia. Monkeys were anesthetized with 1% α-chloralose (100 mg/kg intravenous), followed by a constant infusion of α-chloralose 40 mg/kg/hr, IV which was reduced to 30 mg/kg/hr approximately 92 to 98 min pre treatment due to low blood pressure. Monkeys were placed on a heating pad set to maintain the animal's body temperature at approximately 37° C. Body temperature was monitored throughout the experiment via a rectal thermometer or via the Swan Ganz (thermodilution catheter) once implanted. Monkeys were intubated and placed on a ventilator supplemented with oxygen to maintain oxygenation within the normal physiological range. The animals were mechanically ventilated at a rate of 12 breaths/minute and a pressure of 17-18 cm H2O. The following parameters were regularly monitored in order to ensure proper ventilation of the animals but are not reported: SpO2, inspiratory and expiratory CO2, inspiratory O2 and respiratory rate.
as §1
Following surgical preparation, hemodynamic and electrocardiographic parameters were allowed to stabilize for at least 15 minutes. The vehicle control and test article were then administered, and hemodynamic, electrocardiographic parameters were monitored. Histamine and plasma PK data was obtained.

[5] = system: post-MI beagle dogs; test: Hemodynamic effects in anesthetized post-MI sudden cardiac death model; type: in vivo, beagle dog; settings: 15 mg/kg
Experimental: A hemodynamic effects study of sulcardine sulfate in an anesthetized post-MI sudden cardiac death model study was also performed. The study population consisted of ten purpose-bred, female beagle dogs, weighing 10.0-12.0 Kg. The animals had left ventricular wall ischemic injury induced by a 90-minute occlusion of the left anterior descending coronary artery followed by reperfusion. Five animals were treated with sulcardine sulfate (15 mg/kg) infused intravenously over 10 minutes, and the remaining five animals were vehicle dogs treated with 0.9% sodium chloride solution (placebo). Lowest mean arterial blood pressure was measured every 15 minutes for a total period of 120 minutes after treatment.

[6] = system: conscious beagle dogs; test: Hemodynamics and plasma histamine in conscious beagle dogs, 10 minute infusions of increasing doses; type: in vivo, beagle dog; settings: for Heart rate / Histamine Concentration / Mean blood pressure: 10 minute infusion
Experimental: The effect of sulcardine sulfate intravenously administered over a 10 minute infusion on the mean blood pressure, heart rate, and plasma histamine concentration of conscious beagle dogs was performed. Three male and female purpose-bred beagles, weighing 10.0-12.7 Kg were intravenously administered repeated increasing doses of sulcardine sulfate (cumulative dose 1-44 mg/kg) at 15 minute intervals following a 10 minute infusion of the prior dose. The administered doses were as follows: 1 mg/kg, 3 mg/kg, 10 mg/kg, and 30 mg/kg sulcardine sulfate. Heart rate, mean arterial blood pressure, and histamine concentrations were measured (Table 3) at 10 minute intervals after completion of each drug infusion period.

## sulcardine sulfate
[1]; 90 mg/kg, 15 minute infusion
  mean peak plasma concentration: 25.6 ug/mL and 56.3 μM
[1]; minipigs, read-out: Cmax that led to observed side effects such as hypotension
  Cmax: 13.6 µM
[2]; 90 mg/kg, 15 minute infusion
  mean peak plasma concentration: 845.5 ug/mL and 1,860.1 μM
[2]; primates, read-out: Cmax that led to observed side effects such as hypotension
  Cmax: 21 µM
[3]; 10 mg/kg, Animal 1601C
  QTcC prolongation: 15%
[3]; 10 mg/kg, per animal
  PR interval increase: +38% and +10%
[3]; 90 mg/kg, during or at completion of the 15-minute infusion
  mortality: both animals succumbed
[3]; 30 and 90 mg/kg, both animals
  QTcC prolongation: up to 30%
[3]; all doses
  histamine levels: no appreciable increases
[3]; starting at 10 mg/kg, both animals
  QRS durations: dose dependent pattern of increasing QRS durations
[4]; 10 mg/kg
  heart rate (HR) change (relatively stable): ≤ 10%
  histamine levels: no appreciable increases
[4]; 10 mg/kg, per animal
  PR interval increase: +18% and +30%
  increase of QRS from baseline: 11% and 26%
[4]; 30 mg/kg infusion, animal 1501A
  conduction abnormality: right bundle branch block (RBBB)
[4]; 30 mg/kg, at the completion of infusion
  mean pulmonary arterial pressure increase: up to +245%
[4]; 90 mg/kg infusion / shortly before death, animal 1602B
  conduction abnormality: sino-atrial block with a ventricular escape rhythm and RBBB
[4]; 90 mg/kg, before completion of the 15-minute infusion
  mortality: death in both animals
[4]; 90 mg/kg, per animal
  QRS interval increase from baseline: 88% and 133%
  QTcB increase from baseline: 78 ms and 112 ms
[4]; 30 and 90 mg/kg
  PR interval increase: Further increases were noted
[4]; Animal No. 1501A, after 10 minutes of the 30 mg/kg infusion
  histamine levels: transient increases
[4]; Animal No. 1602B, any dose levels
  histamine levels: No appreciable increases
[5]
  time after completion of infusion by which arterial blood pressure was not different from baseline or placebo: ≤ 50 min
[5]; at fifteen, thirty, and forty-five minutes after completing a 10 minute infusion, P<0.05
  mean arterial blood pressure compared to baseline values: significantly lower
[6]; 1 mg/kg
  Heart rate: 90.00 ± 12.58 bpm
  Histamine Concentration: 93.95 ± 24.11 ng/mL
  Mean blood pressure: 166.7 ± 10.99 mmHg
[6]; 3 mg/kg
  Heart rate: 110.00 ± 10.41 bpm
  Histamine Concentration: 182.5 ± 46.11 ng/mL
  Mean blood pressure: 170.7 ± 7.36 mmHg
[6]; 10 mg/kg
  Heart rate: 111.7 ± 17.64 bpm
  Histamine Concentration: 252.6 ± 85.78 ng/mL
  Mean blood pressure: 101.0 ± 28.45 mmHg
[6]; 30 mg/kg
  Heart rate: 111.7 + 6.01 bpm
  Histamine Concentration: 465.9 ± 27.75 ng/mL
  Mean blood pressure: 69.7 ± 14.7 mmHg
[6]; with erythemitous flare of face and ears and urticaria (hives)
  observations during intravenous administration over 10 minutes: dose-dependent decrease in arterial blood pressure
